Test results reported in US20250161422A1, “ARGINASE 2 VACCINE” (IO Biotech ApS, priority 2022, published 2025).

How the values were obtained:
[1] = test system: splenocytes of vaccinated mice; assay: Murine IFNγ ELISPOT on splenocytes; type: in vivo, C57BL/6 mice; details: splenocytes of ARG2-vaccinated Pan02 mice plated with ARG1 peptide
Method: The purity of all synthesized peptides was >90%.
Mice were sacrificed at endpoint for tumor studies and one week after the last vaccination for the remaining studies. Spleens were harvested, smashed through a 70 μm filter, and red blood cells were lysed with Red Blood Cell Lysis Solution (Qiagen). 8×10^5 splenocytes were plated per well in IFNγ ELISPOT plates. IFNγ ELISPOT was performed as previously described. Tumors were harvested, cut into smaller pieces and enzymatically digested in RPMI medium containing 2.1 mg/ml collagenase type 1 (Worthington), 75 μg/ml DNase I (Worthington), 5 mM CaCl2, and 1% P/S. Cells were filtered through a 70 μm cell strainer and red blood cells were lysed as described above. CD45+tumor infiltrating lymphocytes (TILs) were isolated from tumor single-cell suspensions with CD45 microbeads (for MC38 and LL2 tumors) (Miltenyi Biotec) or with CD45 (TIL) microbeads (for B16-F10 tumors) (Miltenyi Biotec). The isolated CD45+ cells were rested overnight. 5×10^5 CD45+ cells were plated per well in IFNγ ELISPOT plates. For phenotyping ARG2 responses, CD8+ and CD4^+ T cells were isolated from the spleen of vaccinated mice with CD8a (Ly-2) and CD4 (L3T4) microbeads (Miltenyi Biotec), respectively, following manufacturer's instruction. Isolated T cells were rested overnight. […]

PBMCs = assay: Ex vivo IFNγ ELISPOT; type: cell-based, human; details: donors with strong in vitro responses
Method: PBMCs were thawed and rested overnight. The next day, 9×10^5 cells were plated pr. well. Control and peptide stimulations were performed in at least triplicate. The rest of the protocol was performed as described above.

[2] = test system: HLA-A1+, HLA-C7+ or HLA-B8+ cancer cell lines (FM6, FM28, FM82, OCI-M2); assay: IFNγ ELISPOT of A2S05-specific T cells with peptide-pulsed cancer cell lines; type: cell-based, human; details: for IFNγ ELISPOT reactivity of A2S05-specific T cells to peptide-pulsed HLA-B8+ FM6: metastatic malignant melanoma cell line FM6
Method: Peptide-specific IFNγ secreting cells were calculated by subtracting the average spot count in control wells from the average spot count in peptide-stimulated wells. ELISPOT assays with ARG2-specific T cells (effector cells) and various immune cells or cancer cells as target cells were set up by adding 3×10^4-5×10^4 effector cells to ELISPOT wells followed by 5×10^3-10^4 target cells. Peptide pulsing was performed by incubating the target cells with 20 μM peptide for 1 hour, followed by two washes to remove unbound peptide. Effector cells with added peptide served as the positive control and target cells plated without […] as the negative control. In ELISPOTs assays with immune cells as target cells, wells containing only effector cells were also included as controls. The average spot count from replicate wells was subtracted from the spot count of effector cells plated with the respective target cells.
(§1) ARG2-specific T-cell cultures were obtained by stimulation of PBMCs with ARG2-S05 peptide, followed by low-dose IL-2 (120 U/mL) the next day. At 12 days after peptide stimulation, the cells were re-stimulated with peptide, and IFNγ-secreting cells were isolated using magnetic beads. Next, these cells were expanded using a rapid expansion protocol, including feeder cells, CD3 antibody, and high-dose IL-2 (3000-6000 U/mL). On day 16-17, culture specificity was determined by stimulation with ARG2-S05 peptide and determination of the cytokine release by ICS.
FM6 was confirmed to be HLA-B8^+ by flow cytometry and confirmed to express ARG2 by RT-qPCR (FIG. 6).

[3] = test system: PBMCs from healthy donors or cancer patients; assay: In vitro peptide stimulation of PBMCs and IFNγ ELISPOT; type: cell-based, human; details: for IFNγ ELISPOT response in 17 HDs: 17 healthy donors of undetermined HLA-type; for IFNγ ELISPOT response, screening: PBMCs of five healthy HLA-A2+ donors, restimulated after 12-14 days; for IFNγ ELISPOT response, validation (repetition): healthy donors, repeat ELISPOT (FIG. 5)
Method: PBMCs from healthy donors or cancer patients were subjected to in vitro stimulation with ARG2-derived peptides by plating the cells with 10 μM peptide. The following day, the cells received low-dose IL-2 (120 U/ml) treatment. At 10-14 days after peptide stimulation, the cells were used for IFNγ ELISPOT. ELISPOT plates were coated with […] IFNγ capture antibody (MabTech) overnight. The next day, the plates were washed and blocked in X-vivo media followed by the plating of 2.5-3.5×10^5 PBMCs per well for ELISPOT, with and without restimulation with 5 μM peptide. A minimum of triplicate wells were set up pr. condition. The cells were incubated 14-16 hours before they were washed and a biotin-conjugated secondary antibody (Mabtech) was added, followed by a 2-hour incubation. Next, the cells were washed again, followed by incubation with streptavidin-conjugated alkaline phosphatase (Mabtech) for 1 hour. Finally, spots were developed by addition of BCIP/NBT substrate (Mabtech). Tap water was used to stop the reaction. Spots corresponding to IFNγ secretion were quantified by visualization on a CTL ImmunoSpot S6 Ultimate-V analyzer with ImmunoSpot software version 5.1. Peptide-specific IFNγ secreting cells were calculated by subtracting the average spot count in control wells from the average spot count in peptide-stimulated wells. […] Peptide pulsing was performed by incubating the target cells with 20 μM peptide for 1 hour, followed by two washes to remove unbound peptide. Effector cells with added peptide served as the positive control and […] plated without […] as the negative control. In ELISPOTs assays with immune cells as target cells, wells containing only effector cells were also included as controls. The average spot count from replicate wells was subtracted from the spot count of effector cells plated with the respective target cells. These 15 peptides ([…] to […]) were screened in peripheral blood mononuclear cells (PBMCs) from five healthy donors (HD), who were confirmed to be HLA-A2 positive (HLA-A2^+). PBMCs were stimulated with each peptide in vitro and restimulated in IFNγ ELISPOT after 12-14 days of culture.

[4] = test system: PBMCs / peptide-specific T-cell cultures; assay: Intracellular cytokine staining for TNFα and IFNγ; type: cell-based, human; details: for T-cell subset that responds (ICS for TNFα and IFNγ): peptide-stimulated healthy donor PBMCs
Method: PBMCs were in vitro stimulated with peptide as described above. At 10-14 days post-simulation, the cells were used for intracellular cytokine staining. […] After a 4-hour incubation period, the cells were washed and stained for the extracellular markers CD3-APC/H7, CD4-FITC, and CD8-PerCP, and dead cells were stained with FVS-510. Next, the cells were permeabilized using Fixation/Permeabilization buffer (Invitrogen), followed by staining with IFNγ-APC and TNFα-BV421. Data were acquired using a BD Canto II flow cytometer and analyzed using FlowJo.
as §1
To further characterize the ARG2-specific CD8^+ T cells, A2S05-specific T-cell cultures from four donors were established. Briefly, donor PBMCs were stimulated with A2S05 in vitro. 12 days later, peptide-specific T cells were re-stimulated and isolated using an IFNγ capture kit. IFNγ-producing cells were expanded using a rapid expansion protocol and the specificity was examined at 16-17 days after expansion by ICS for IFNγ and TNF.

[5] = test system: murine model of lung cancer; details: previously shown by the inventors; cited from earlier work
[6] = test system: splenocytes of vaccinated mice; details: previously identified by the inventors; cited from earlier work

ISAKDIVYI (listed as Mus musculus) [mARG1_169-177, murine ARG1 peptide from the corresponding region, control for specific recognition]
cross-reactivity of vaccine-induced responses to ARG1 peptide [1]: no cross-reactivity

NLIVNPRSV (listed as Homo sapiens) [A2S05, human ARG2 positions 84-92]
ex vivo IFNγ ELISPOT response (PBMCs): strong and significant responses in PBMCs ex vivo
IFNγ ELISPOT reactivity of A2S05-specific T cells to peptide-pulsed HLA-A1+ and HLA-C7+ cell lines ([2]; T cells from HD78 and HD93): no reactivity
IFNγ ELISPOT reactivity of A2S05-specific T cells to additional HLA-B8+ cell lines ([2]; all four T-cell cultures, FM28, FM82, OCI-M2): reactivity against three additional HLA-B8^+ cell lines
IFNγ ELISPOT reactivity of A2S05-specific T cells to peptide-pulsed HLA-B8+ FM6 [2]: recognition and reactivity activity
HLA restriction of the peptide ([2]; recognition and cytolytic activity against HLA-B8+ lines): HLA-B8 restriction
IFNγ ELISPOT response in 17 HDs [3]: only few responses
donors with statistically significant IFNγ ELISPOT responses ([3]; 38 donors with known HLA-A2 status (13 cancer patients, 25 healthy donors)): 10 out of the 38
IFNγ ELISPOT response, screening [3]: significant responses in PBMCs from three or more donors
IFNγ ELISPOT response, validation (repetition) [3]: strong IFNγ ELISPOT responses
HLA-A2 restriction from donor responses ([3]; responses in both HLA-A2+ and HLA-A2- donors): not HLA-A2 restricted
specificity of expanded peptide-specific T-cell cultures (ICS for IFNγ and TNF) ([4]; four donors, 16-17 days after expansion): Highly specific CD8+cultures from all four donors
T-cell subset that responds (ICS for TNFα and IFNγ) [4]: responses were from CD8^+ T-cells

LSPPNIVYI (listed as Mus musculus) [mARG2_188-196]
tumor growth in murine model of lung cancer [5]: induced tumor growth delay
T-cell responses upon a single vaccination [6]: strong and frequent T-cell responses

LLSALDLVEV (listed as Homo sapiens) [A2S15, human ARG2 positions 288-297]
IFNγ ELISPOT response, screening [3]: significant responses in PBMCs from three or more donors
IFNγ ELISPOT response, validation (repetition) [3]: did not show significant responses

GLLSALDLV (listed as Homo sapiens) [A2S14, human ARG2 positions 287-295]
IFNγ ELISPOT response, screening [3]: significant responses in PBMCs from three or more donors
IFNγ ELISPOT response, validation (repetition) [3]: strong IFNγ ELISPOT responses
T-cell subset that responds (ICS for TNFα and IFNγ) [4]: reaction was from CD4^+ T cells

QIVKNPRSV (listed as Homo sapiens) [ARG1_65-73, reference compound]
IFNγ ELISPOT reactivity of A2S05-specific T cells to peptide-pulsed HLA-B8+ FM6 [2]: lack of reactivity

SLRGSLSRLLQTRVHSILKKSVHSVAVIGAPFS (listed as Homo sapiens) [A2L2, reference compound]
IFNγ ELISPOT response in 17 HDs [3]: Strong and frequent responses
